Assay results as given in US20180153830A1, “SELECTIVE INHIBITORS OF UNDIFFERENTIATED CELLS” (Yissum Research Development Company of the Hebrew …, priority 2012, published 2018).

Assays:
[1] = tested on: CSES2-SO2/3 ES-derived endodermal progenitors; assay: CellTiter-Glo counter-screen, endodermal progenitors; format: cell-based; conditions: Homo sapiens; for EC50: 24 hours, differentiated cells
Procedure: CSES2-SO2/3 embryonic stem cells were differentiated to endodermal progenitors using an established protocol [Duan et al. Stem Cells 28:674-686 (2010)]. Undifferentiated cells were seeded at a density of 10,000 cells/cm^2 on MatrigelT™-coated plates, with mTeSR1 medium. The next day (day 1), medium was replaced to serum-free RPMI-1640, supplemented with 2 mM glutamine, 100 ng/ml Activin A 60 μg/ml of G418 geneticin sulfate and 0.3 μg/ml of puromycin. From day 3 to day 8, the same medium was also supplemented with 1×B27 supplement (Invitrogen) and 0.5 mM sodium butyrate. The cellular identity of the cells as endodermal progenitors was verified by quantifying the percentage of green SOX17+ cells, and the percentage of CXCR4+ cells, using a Guava® EasyCyte™ Plus flow cytometry system (Millipore). Further validation was obtained by fluorescence-staining of the cells with an antibody against the early endodermal surface marker CXCR4 (CXCR4-PE antibody, 1:25; BD Biosciences). The percentage of CXCR4+ cells was also quantified using the Guava® EasyCyte™ Plus flow cytometry system.
696 confirmed hits from the confirmation screen were tested for profiling in a panel of 13 different cell types, using the same screening protocol described above (except in the case of embryonic stem cell-derived neural stem cells (NSCs) and mesenchymal stem cells (MSCs), for which the protocol is described below). As discussed below, compounds were tested either in dose-dependent multiple concentration manner or in single concentration manner. […] BJ-iPS28 cell line and the BJ fibroblasts from which it was derived were screened at 6 concentrations ranging from 50 μM to 200 nM with 1:3 serial dilution steps. Cardiomyocytes were screened in one concentration of 20 μM. HeLa and NTERA-2 cell lines were screened in duplicates of 20 μM. Kelly and Huh-7 were screened in triplicates of 20 μM. Hepatocytes were screened in duplicates of 20 μM in the original 96-well plates in which the cells arrived (40,000 cells per well, in 160 μl medium, the volumes of all reagents involved were adjusted accordingly). MSCs and NSCs were screened in duplicates of 12.5 μM.
In order to identify highly-selective cytotoxic inhibitors of hPSCs, the 696 cytotoxic inhibitors of hPSCs identified as described in Example 1 were counter-screened as described in the Materials and Methods section against other cell types, representative of all germ layers and developmental stages. Importantly, many of these cell types were differentiated from human ES or iPS cells. The screened cell types included ES-derived neural stem cells (NSCs), ES-derived mesenchymal stem cells (MSCs), ES-derived endodermal progenitor cells, ES-derived hepatocytes, iPS-derived cardiomyocytes, iPS-derived fibroblasts of origin (BJ fibroblasts), and three cancer cell lines: neuroblastoma (Kelly), cervical cancer (HeLa) and hepatocarcinoma (Huh7). The cell types and their relationship to stem cells are depicted schematically in FIG. 14.
The identified compounds were screened at 8 concentrations using both the undifferentiated red cells and the differentiated green cells, and reliable EC50 values were thereby calculated for the genetically identical differentiated and undifferentiated cells.

[2] = tested on: BJ-iPS28 induced pluripotent stem cells; assay: CellTiter-Glo luminescent cell viability screen, BJ-iPS28; format: cell-based; conditions: Homo sapiens; for EC50: 24 h; for inhibition at 20 µM: pluripotent stem cells
Procedure: 5,000 CSES2 cells were plated in 50 μl per well of mTeSR1 medium into black 384-well clear-bottom plates (Falcon BD) pre-coated with Matrigel™ using WellMate cell dispenser (Matrix, Hudson, N.H.). 24 hours after plating, medium was replaced with 25 μl of fresh medium and 25 μl of 40 μM compound medium solutions in 1% DMSO from the intermediate compound dilution plates. The plates were incubated at 37° C., in a 5% CO2 atmosphere, for the entire duration of the screen, apart from the time required for liquid handling. Cell viability was determined 24 hours after compound treatment using CellTiter-Glo® luminescent cell viability assay kits. 50 μl of CellTiter-Glo® reagent was added to each well of the assay plates and fully mixed. After incubation at room temperature for 15 minutes, 25 μl of liquid was transferred from each well into a white opaque-bottom 384-well plate (PerkinElmer), and luminescence was measured using an EnVision® plate reader (PerkinElmer). 16 neutral control wells (0.5% DMSO) and 8 positive control wells (5 μM amsacrine hydrochloride were used to normalize the compound effect. All liquid transfer steps were handled with a Biomek® FXP Laboratory Automation Workstation (Beckman Coulter, Fullerton, Calif.) and Muitidrop Combi liquid dispenser (Thermo Fisher, Waltham, Mass.). An Assay Analyzer (Genedata, Basel, Switzerland) was used for data pattern correction and calculation. The Spotfire software (Spotfire, Somerville, Mass.) was used for data illustration.
696 confirmed hits from the confirmation screen were tested for profiling in a panel of 13 different cell types, using the same screening protocol described above (except in the case of embryonic stem cell-derived neural stem cells (NSCs) and mesenchymal stem cells (MSCs), for which the protocol is described below). As discussed below, compounds were tested either in dose-dependent multiple concentration manner or in single concentration manner. CSES2 and CSES2-SO2/3 cell lines and the early endodermal progenitors derived from this cell line (CSES2-SO2/3-differentiated) were screened at 8 concentrations ranging from 50 μM to 23 nM with 1:3 serial dilution steps. […] Cardiomyocytes were screened in one concentration of 20 μM. HeLa and NTERA-2 cell lines were screened in duplicates of 20 μM. Kelly and Huh-7 were screened in triplicates of 20 μM. Hepatocytes were screened in duplicates of 20 μM in the original 96-well plates in which the cells arrived (40,000 cells per well, in 160 μl medium, the volumes of all reagents involved were adjusted accordingly). MSCs and NSCs were screened in duplicates of 12.5 μM.
The raw intensity data for each well were background-corrected by subtraction of the median intensities across all positive control wells on the same plate, and used to calculate the inhibitory effect of each compound per cell line. A Genedata Assay Analyzer and Condoseo were used for data pattern correction, calculation and IC50 curve fitting. A Z′ factor was determined for each plate.
The effect of the selected compounds on human iPS cells was then determined. […]

Row | Compound | EC50 [1] [µM] | inhibition at 20 µM [1] [%] | EC50 [2] [µM] | inhibition at 20 µM [2] [%]
1 | CCCCCC(=O)NNc1ccc(Cl)cc1 [PluriSIn #10] | > 50 | 33.8 | 2.43 | 87.4
2 | O=C(NNc1ccccc1)c1ccncc1 [PluriSIn #1, isonicotinic acid N′-phenylhydrazide] | > 50 | 6.5 | 2.39 | 85.4
3 | Cc1ccc(NNC(=O)C(O)(c2ccccc2)c2cccs2)cc1 (stereo not shown) [PluriSIn #6, 2-hydroxy-2-(thiophen-2-yl)-2-phenylacetic acid 4-methyl-N′-phenylhydrazide] | > 50 | -2.5 | 2.26 | 83.3
4 | Cc1oc2ccccc2c1/C=N/Nc1ccccc1 [PluriSIn #8] | > 50 | 0 | 1.69 | 82.2
5 | Nc1cc(N)cc(COc2ccc(-c3ccccc3)cc2)c1 [PluriSIn #3] | > 50 | -9.2 | 1.68 | 81.1
6 | O=C(Nc1ccccc1)n1cc(F)c(=O)[nH]c1=O [PluriSIn #2] | > 50 | -8.3 | 6.96 | 56.8
7 | CCN(CC)C(=O)C(=O)c1c(-c2ccccc2)[nH]c2c1sc1ccccc12 [PluriSIn #12] | > 50 | – | 5.4 | 83.4
8 | C/C(=N\O)NNc1ccc(Cl)cc1 [PluriSIn #9] | > 50 | 11.9 | 3.42 | 92.3
9 | C(=N\C1CCC(CC2CCCCC2)CC1)/OC1CCOC1 (stereo not shown) [PluriSIn #15] | > 50 | 2.1 | 3.94 | –
10 | O=C(NCCc1ccc(O)cc1)c1ccc(N2CCCCC2)cc1 [PluriSIn #4] | > 50 | -1.1 | 0.75 | 74.8
11 | O=C(NN(C(=O)c1ccccc1)c1ccccc1)c1ccc(Cl)cc1 [PluriSIn #14] | > 50 | 18.8 | 3.48 | 81.7
12 | O=S(=O)(NNc1ccccc1)c1ccc2ccccc2c1 [PluriSIn #5] | > 50 | 12.9 | 1.52 | 87.9
13 | CC(=O)Oc1ccc(/C=C/c2ccc3c(c2)CCN3C)cc1 [PluriSIn #7] | > 50 | 24.8 | 2.13 | 89
14 | CCOC(=O)CN1CC(=O)/C(=C\NNc2ccccc2)C1=O [PluriSIn #11] | > 50 | 4.3 | 3.12 | 90.6
15 | O=C1C=CC=C1/C=C/C(=N\Nc1ccccc1)c1ccccc1 [PluriSIn #13] | > 50 | 15.8 | 1.51 | 94.4
